{"source": "ChEMBL document CHEMBL1142762", "about": "“Identification of 4-methyl-1,2,3,4,10,10a-hexahydropyrazino[1,2-a]indoles as 5-HT2C receptor agonists” (Bioorg Med Chem Lett, 2005)", "key": {"[1]": {"target": "5-hydroxytryptamine receptor 2B (Homo sapiens, UniProt P41595)", "sequence (P41595 whole entry)": "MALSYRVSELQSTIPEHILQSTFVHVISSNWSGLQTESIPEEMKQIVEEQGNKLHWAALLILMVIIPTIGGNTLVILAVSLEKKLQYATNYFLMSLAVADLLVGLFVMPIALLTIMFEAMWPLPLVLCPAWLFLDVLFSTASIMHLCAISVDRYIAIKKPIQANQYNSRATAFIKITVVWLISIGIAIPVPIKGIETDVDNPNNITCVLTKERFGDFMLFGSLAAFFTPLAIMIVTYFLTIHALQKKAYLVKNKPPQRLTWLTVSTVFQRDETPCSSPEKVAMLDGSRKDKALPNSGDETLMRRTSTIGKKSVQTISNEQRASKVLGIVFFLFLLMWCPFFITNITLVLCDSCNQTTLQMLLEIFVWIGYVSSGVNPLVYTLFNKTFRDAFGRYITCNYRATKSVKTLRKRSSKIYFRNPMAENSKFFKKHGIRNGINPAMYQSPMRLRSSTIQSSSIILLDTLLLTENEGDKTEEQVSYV", "assay": "Binding affinity toward 5-HT2B receptor evaluated by displacement of [3H]5-HT radioligand"}, "[2]": {"target": "T1, 5-hydroxytryptamine receptor 2C (Homo sapiens, UniProt P28335)", "T1 sequence (P28335 whole entry)": "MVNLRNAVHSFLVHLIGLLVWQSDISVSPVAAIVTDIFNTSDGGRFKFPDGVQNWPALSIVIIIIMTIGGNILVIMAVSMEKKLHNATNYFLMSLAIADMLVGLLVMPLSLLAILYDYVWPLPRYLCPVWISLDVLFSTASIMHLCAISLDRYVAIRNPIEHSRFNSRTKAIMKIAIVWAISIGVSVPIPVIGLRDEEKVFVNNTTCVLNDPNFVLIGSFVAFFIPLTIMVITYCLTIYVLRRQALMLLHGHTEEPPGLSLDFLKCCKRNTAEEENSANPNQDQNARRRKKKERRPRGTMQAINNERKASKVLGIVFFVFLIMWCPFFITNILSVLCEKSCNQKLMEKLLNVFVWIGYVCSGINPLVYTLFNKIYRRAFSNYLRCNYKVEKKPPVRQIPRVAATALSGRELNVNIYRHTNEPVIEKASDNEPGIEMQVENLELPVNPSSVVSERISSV", "assay": "Binding affinity toward 5-HT2C receptor evaluated by displacement of [3H]5-HT radioligand"}, "[3]": {"target": "5-hydroxytryptamine receptor 2A (Homo sapiens, UniProt P28223)", "sequence (P28223 whole entry)": "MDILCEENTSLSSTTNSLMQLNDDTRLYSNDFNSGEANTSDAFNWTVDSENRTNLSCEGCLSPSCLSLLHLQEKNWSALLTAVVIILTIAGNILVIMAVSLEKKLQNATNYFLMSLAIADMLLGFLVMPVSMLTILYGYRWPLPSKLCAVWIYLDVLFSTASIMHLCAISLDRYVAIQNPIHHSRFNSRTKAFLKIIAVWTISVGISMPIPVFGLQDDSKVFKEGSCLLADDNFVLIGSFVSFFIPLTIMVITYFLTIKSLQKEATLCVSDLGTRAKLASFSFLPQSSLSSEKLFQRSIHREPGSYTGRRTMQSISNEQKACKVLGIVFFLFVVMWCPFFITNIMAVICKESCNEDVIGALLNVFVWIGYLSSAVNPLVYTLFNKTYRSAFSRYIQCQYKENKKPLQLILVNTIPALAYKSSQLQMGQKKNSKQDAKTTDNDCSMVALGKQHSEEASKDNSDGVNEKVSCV", "assay": "Binding affinity toward 5-HT2A receptor evaluated by displacement of [125I]DOI radioligand"}, "[4]": {"target": "T2, 5-hydroxytryptamine receptor 2C (Homo sapiens) (UniProt P28335)", "T2 sequence (whole entry)": "T1 sequence (P28335 whole entry)", "assay": "Relative efficacy toward 5-HT2C receptor"}}, "data": [{"smiles": "C[C@@H]1CNC[C@H]2Cc3ccc(C(F)(F)F)cc3N21", "values": [{"measurement": "Ki", "setting": "[1]", "value": 11, "unit": "nM"}, {"measurement": "Ki", "setting": "[2]", "value": 1.4, "unit": "nM"}, {"measurement": "Ki", "setting": "[3]", "value": 7.5, "unit": "nM"}, {"measurement": "Efficacy", "setting": "[4]", "value": 94, "unit": "%"}]}, {"smiles": "C[C@@H]1CNC[C@@H]2Cc3ccccc3N21", "note": "(stereo in doubt; 7) [listing 1 of 2 here]", "values": [{"measurement": "Ki", "setting": "[1]", "value": 210, "unit": "nM"}, {"measurement": "Ki", "setting": "[2]", "value": 13, "unit": "nM"}, {"measurement": "Ki", "setting": "[3]", "value": 55, "unit": "nM"}]}, {"smiles": "Clc1ccc2c(c1)N1CCNCC1C2", "note": "(stereo not drawn)", "values": [{"measurement": "Ki", "setting": "[1]", "value": 53, "unit": "nM"}, {"measurement": "Ki", "setting": "[2]", "value": 31, "unit": "nM"}, {"measurement": "Ki", "setting": "[3]", "value": 32, "unit": "nM"}, {"measurement": "Efficacy", "setting": "[4]", "value": 99, "unit": "%"}]}, {"smiles": "C[C@@H]1CNC[C@@H]2Cc3ccccc3N21", "note": "(stereo in doubt; 7) [listing 2 of 2 here]", "values": [{"measurement": "Efficacy", "setting": "[4]", "value": 94, "unit": "%"}]}, {"smiles": "Cc1ccc2c(c1C)N1[C@H](CNC[C@H]1C)C2", "values": [{"measurement": "Ki", "setting": "[1]", "value": 67, "unit": "nM"}, {"measurement": "Ki", "setting": "[2]", "value": 9.5, "unit": "nM"}, {"measurement": "Ki", "setting": "[3]", "value": 102, "unit": "nM"}, {"measurement": "Efficacy", "setting": "[4]", "value": 91, "unit": "%"}]}, {"smiles": "Cc1cccc2c1N1[C@@H](CNC[C@H]1C)C2", "values": [{"measurement": "Ki", "setting": "[1]", "value": 59, "unit": "nM"}, {"measurement": "Ki", "setting": "[2]", "value": 2.6, "unit": "nM"}, {"measurement": "Ki", "setting": "[3]", "value": 43, "unit": "nM"}, {"measurement": "Efficacy", "setting": "[4]", "value": 100, "unit": "%"}]}, {"smiles": "C[C@@H]1CNC[C@H]2Cc3ccccc3N21", "values": [{"measurement": "Ki", "setting": "[1]", "value": 15, "unit": "nM"}, {"measurement": "Ki", "setting": "[2]", "value": 2.2, "unit": "nM"}, {"measurement": "Ki", "setting": "[3]", "value": 1.9, "unit": "nM"}, {"measurement": "Efficacy", "setting": "[4]", "value": 97, "unit": "%"}]}, {"smiles": "C[C@H]1CNC[C@@H]2Cc3ccccc3N21", "values": [{"measurement": "Ki", "setting": "[1]", "value": 2600, "unit": "nM"}, {"measurement": "Ki", "setting": "[2]", "value": 180, "unit": "nM"}, {"measurement": "Ki", "setting": "[3]", "value": 430, "unit": "nM"}, {"measurement": "Efficacy", "setting": "[4]", "value": 62, "unit": "%"}]}, {"smiles": "Cc1ccc2c(c1C)N1[C@@H](CNC[C@H]1C)C2", "values": [{"measurement": "Ki", "setting": "[1]", "value": 13, "unit": "nM"}, {"measurement": "Ki", "setting": "[2]", "value": 1.7, "unit": "nM"}, {"measurement": "Ki", "setting": "[3]", "value": 34, "unit": "nM"}, {"measurement": "Efficacy", "setting": "[4]", "value": 96, "unit": "%"}]}, {"smiles": "C[C@@H]1CNC[C@H]2Cc3ccc(CO)cc3N21", "values": [{"measurement": "Ki", "setting": "[1]", "value": 250, "unit": "nM"}, {"measurement": "Ki", "setting": "[2]", "value": 34, "unit": "nM"}, {"measurement": "Ki", "setting": "[3]", "value": 290, "unit": "nM"}, {"measurement": "Efficacy", "setting": "[4]", "value": 97, "unit": "%"}]}, {"smiles": "Cc1ccc2c(c1)N1[C@@H](CNC[C@H]1C)C2", "values": [{"measurement": "Ki", "setting": "[1]", "value": 21, "unit": "nM"}, {"measurement": "Ki", "setting": "[2]", "value": 1.3, "unit": "nM"}, {"measurement": "Ki", "setting": "[3]", "value": 22, "unit": "nM"}, {"measurement": "Efficacy", "setting": "[4]", "value": 100, "unit": "%"}]}, {"smiles": "C[C@@H]1CNC[C@H]2Cc3ccc(C#N)cc3N21", "values": [{"measurement": "Ki", "setting": "[1]", "value": 90, "unit": "nM"}, {"measurement": "Ki", "setting": "[2]", "value": 3.8, "unit": "nM"}, {"measurement": "Ki", "setting": "[3]", "value": 110, "unit": "nM"}, {"measurement": "Efficacy", "setting": "[4]", "value": 77, "unit": "%"}]}, {"smiles": "CC(=O)Nc1ccc2c(c1)N1[C@@H](CNC[C@H]1C)C2", "values": [{"measurement": "Ki", "setting": "[1]", "value": 960, "unit": "nM"}, {"measurement": "Ki", "setting": "[2]", "value": 680, "unit": "nM"}, {"measurement": "Ki", "setting": "[3]", "value": 1100, "unit": "nM"}, {"measurement": "Efficacy", "setting": "[4]", "value": 24, "unit": "%"}]}, {"smiles": "Cc1c(Cl)ccc2c1N1CCNC[C@@H]1C2", "values": [{"measurement": "Ki", "setting": "[1]", "value": 140, "unit": "nM"}, {"measurement": "Ki", "setting": "[2]", "value": 32, "unit": "nM"}, {"measurement": "Ki", "setting": "[3]", "value": 52, "unit": "nM"}, {"measurement": "Efficacy", "setting": "[4]", "value": 80, "unit": "%"}]}, {"smiles": "Cc1c(Cl)ccc2c1N1CCNC[C@H]1C2", "values": [{"measurement": "Ki", "setting": "[1]", "value": 10, "unit": "nM"}, {"measurement": "Ki", "setting": "[2]", "value": 1.5, "unit": "nM"}, {"measurement": "Ki", "setting": "[3]", "value": 6.2, "unit": "nM"}, {"measurement": "Efficacy", "setting": "[4]", "value": 90, "unit": "%"}]}, {"smiles": "C[C@@H]1CNC[C@@H]2Cc3ccccc3N21", "note": "(stereo in doubt; 8) [listing 1 of 2 here]", "values": [{"measurement": "Ki", "setting": "[1]", "value": 160, "unit": "nM"}, {"measurement": "Ki", "setting": "[2]", "value": 22, "unit": "nM"}, {"measurement": "Ki", "setting": "[3]", "value": 61, "unit": "nM"}]}, {"smiles": "Cc1c(Cl)ccc2c1N1[C@@H](CNC[C@H]1C)C2", "values": [{"measurement": "Ki", "setting": "[1]", "value": 3.2, "unit": "nM"}, {"measurement": "Ki", "setting": "[2]", "value": 0.3, "unit": "nM"}, {"measurement": "Ki", "setting": "[3]", "value": 2.6, "unit": "nM"}, {"measurement": "Efficacy", "setting": "[4]", "value": 98, "unit": "%"}]}, {"smiles": "C[C@@H]1CNC[C@@H]2Cc3ccccc3N21", "note": "(stereo in doubt; 8) [listing 2 of 2 here]", "values": [{"measurement": "Efficacy", "setting": "[4]", "value": 87, "unit": "%"}]}, {"smiles": "Cc1c(Cl)ccc2c1N1[C@H](CNC[C@H]1C)C2", "values": [{"measurement": "Ki", "setting": "[1]", "value": 19, "unit": "nM"}, {"measurement": "Ki", "setting": "[2]", "value": 1.9, "unit": "nM"}, {"measurement": "Ki", "setting": "[3]", "value": 40, "unit": "nM"}, {"measurement": "Efficacy", "setting": "[4]", "value": 97, "unit": "%"}]}]}
